Test results published in patent publication US4956368A, “Metabolites and prodrug formulations of 8-[4-[4-(1,2-benzisothiazol-3-yl)-1-piperazinyl]butyl]-8-azaspiro[4.5]de cane-7,9-dione” (Bristol-Myers Company, priority 1989, dated 1990).
Read-outs that look alike come from different tables or passages of the source.

Experiments:
[1] = molecular target: Dopamine/Spiperone/neuroleptic receptor site; assay: Receptor binding test RB1, [3H] Spiperone ligand, D(+)Butaclamol specific binding agent
Text: (§1) As indication of the psychotropic activity and specificity of a compound, state of the art in vitro central nervous system receptor binding (RB) methodology can be employed. […] Inhibition of radiolabeled ligand binding at such sites is considered a measure of the test compound's ability to affect corresponding central nervous system function in vivo.
(§2) Some of the more common binding tests employed are listed below in Table 1.

Alpha-1 = assay: Receptor binding test RB2, [3H] WB-4104 ligand, Phentolamine specific binding agent
Text: as §1, §2

Serotonin Type 2 (5-HT2) [2] = molecular target: T1, Serotonin Type 2 (5-HT2) (Rattus norvegicus, UniProt P14842); assay: Receptor binding test RB3, [3H] Spiperone ligand, D-Lysergide specific binding agent
T1 construct: from tissue; frontal cortex in the cited method
T1 sequence (P14842 whole entry): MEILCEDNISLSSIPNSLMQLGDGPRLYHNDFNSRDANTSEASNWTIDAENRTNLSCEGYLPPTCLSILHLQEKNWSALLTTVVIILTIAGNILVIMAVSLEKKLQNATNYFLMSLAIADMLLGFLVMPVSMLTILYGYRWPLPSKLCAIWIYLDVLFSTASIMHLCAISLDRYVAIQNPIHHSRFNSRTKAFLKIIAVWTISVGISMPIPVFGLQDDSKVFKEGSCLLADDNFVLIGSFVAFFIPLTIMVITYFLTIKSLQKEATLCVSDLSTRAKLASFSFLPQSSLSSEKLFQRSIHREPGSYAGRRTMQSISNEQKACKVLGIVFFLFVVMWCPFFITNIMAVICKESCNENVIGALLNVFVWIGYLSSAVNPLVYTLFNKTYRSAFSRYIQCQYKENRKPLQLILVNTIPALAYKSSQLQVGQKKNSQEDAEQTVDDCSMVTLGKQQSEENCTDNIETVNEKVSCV
Text: as §1, §2

trained fasted rats = assay: Conditioned Avoidance Response (CAR), attenuation of avoidance response to electrical shock; format: in vivo; details: Rattus norvegicus
Text: (§3) The following in vivo test systems (Table 2) are illustrative of the conventional testing used to classify and differentiate a psychotropic agent from a non-specific CNS depressant.

dopaminergic activity = assay: Inhibition of Apomorphine-Induced (APO) Stereotypy, blockade of dopaminergic activity; format: in vivo, rats; details: Rattus norvegicus, read-out: APO ED50
Text: The following in vivo test systems (Table 2) are illustrative of the conventional testing used to classify and differentiate a psychotropic agent from a non-specific CNS depressant. |2. Inhibition of Apomorphine-Induced (APO) Stereotypy - | an assessment of blockade of dopaminergic activity in rats | as measured by attenuation of the behavioral syndrome | caused by the dopamine agonist, apomorphine. cf: Janssen, | et al, Arzneimittel.

[3] = molecular target: T2, Serotonin Type 1A (5-HT1A) (Bos taurus, UniProt F6Q2H9); assay: Receptor binding test RB4, [3H] 8-OH-DPAT ligand, 8-OH-DPAT specific binding agent
T2 construct: from tissue
T2 sequence (F6Q2H9 1-422): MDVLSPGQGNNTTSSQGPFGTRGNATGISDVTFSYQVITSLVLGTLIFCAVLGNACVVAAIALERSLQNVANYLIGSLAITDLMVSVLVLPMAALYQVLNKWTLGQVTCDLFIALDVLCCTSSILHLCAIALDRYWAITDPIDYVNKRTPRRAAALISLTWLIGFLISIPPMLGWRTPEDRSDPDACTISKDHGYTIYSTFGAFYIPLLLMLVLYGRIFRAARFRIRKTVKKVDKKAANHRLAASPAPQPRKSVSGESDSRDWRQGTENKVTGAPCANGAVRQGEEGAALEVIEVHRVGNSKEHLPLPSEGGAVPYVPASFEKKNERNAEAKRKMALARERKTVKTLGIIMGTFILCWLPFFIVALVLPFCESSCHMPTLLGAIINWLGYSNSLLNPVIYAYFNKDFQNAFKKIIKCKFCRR
Text: as §1, §2

Serotonin Type 2 (5-HT2) [4] = molecular target: T1, Serotonin Type 2 (5-HT2); details: background statement; cited from earlier work
[5] = system: Serotonin Type 1A (5-HT1A); details: background statement; cited from earlier work
sigma receptor = details: background statement; cited from earlier work
[6] = system: alpha-adrenergic receptor; details: background statement; cited from earlier work
dopamine D2 receptors = details: background statement; cited from earlier work
dopamine receptor = details: following chronic administration; background statement; cited from earlier work
[7] = system: central nervous system receptor; assay: in vitro receptor binding (RB) tests, overall (Table 6)
Text: As indication of the psychotropic activity and specificity of a compound, state of the art in vitro central nervous system receptor binding (RB) methodology can be employed. Certain compounds (commonly referred to as ligands) have been identified which preferentially bind to specific high affinity sites in brain tissue dealing with psychotropic activity. Inhibition of radiolabeled ligand binding at such sites is considered a measure of the test compound's ability to affect corresponding central nervous system function in vivo.
as §2

psychotropic activity = assay: in vivo screens predictive of antipsychotic activity, overall (Table 7); design: species or system rats; details: compared to tiospirone
Text: as §3
1. Conditioned Avoidance Response (CAR) - measure of a
drug's tranquilizing activity as determined by its'
attenuation of avoidance response to electrical shock in
trained fasted rats. cf: Albert, Pharmacologist, -4, 152 (1962);
2. Inhibition of Apomorphine-Induced (APO) Stereotypy -
an assessment of blockade of dopaminergic activity in rats
as measured by attenuation of the behavioral syndrome
caused by the dopamine agonist, apomorphine. cf: Janssen,
et al, Arzneimittel. Forsch., --17, 841 (1966).

## O=C1CC2(CCCC2)CC(=O)N1CCCCN1CCN(C2=NS(=O)(=O)c3ccccc32)CC1 [Reference # 1]
[1]
  IC50: > 1000 nM
Alpha-1
  IC50: 274 nM
Serotonin Type 2 (5-HT2) [2]
  IC50: 25000 nM
Trained fasted rats; po
  ED50: > 100 mg/kg
Dopaminergic activity; po
  ED50: > 100 mg/kg

## O=C1CC2(CCC(O)C2)CC(=O)N1CCCCN1CCN(c2nsc3ccccc23)CC1 (centres unmarked) [Reference # 2, 2-Hydroxy-8-[4-[4-(1,2-benzisothiazol-3-yl)-1-piperazinyl]butyl]-8-azaspiro[4.5]decane-7,9-dione]
[1]
  IC50: 52.5 nM
Alpha-1
  IC50: 0.876 nM
Serotonin Type 2 (5-HT2) [2]
  IC50: 2.05 nM
Trained fasted rats; po
  ED50: > 100 mg/kg

## O=C1CC2(CCC(O)C2)CC(=O)N1CCCCN1CCN(c2n[s+]([O-])c3ccccc23)CC1 (centres unmarked) [Reference # 3]
[1]
  IC50: > 100000 nM
Alpha-1
  IC50: 372 nM
Serotonin Type 2 (5-HT2) [2]
  IC50: 1480 nM
[3]; read-out: RB4 IC50
  IC50: 1850 nM

## O=C1CCC2(C1)CC(=O)N(CCCCN1CCN(c3nsc4ccccc34)CC1)C(=O)C2 [Reference # 5, 2-Oxo-8-[4-[4-(1,2-benzisothiazol-3-yl)-1-piperazinyl]butyl]-8-azaspiro[4.5]decane-7,9-dione]
[1]
  IC50: 68.3 nM
Alpha-1
  IC50: 1.3 nM
Serotonin Type 2 (5-HT2) [2]
  IC50: 2.92 nM
Trained fasted rats; sc
  ED50: 60.3 mg/kg
Dopaminergic activity; sc
  ED50: > 50 mg/kg

## O=C1CC2(CCCC2)CC(=O)N1CCC(O)CN1CCN(c2nsc3ccccc23)CC1 (centres unmarked) [Reference # 7]
[1]
  IC50: 111 nM
Alpha-1
  IC50: 8.3 nM
Serotonin Type 2 (5-HT2) [2]
  IC50: 10.2 nM
Trained fasted rats; po
  ED50: > 80 mg/kg

## O=C1CC2(CCC(O)C2)CC(=O)N1CCC(O)CN1CCN(c2nsc3ccccc23)CC1 (centres unmarked) [Reference # 9]
[1]
  IC50: 491 nM
Alpha-1
  IC50: 7.15 nM
Serotonin Type 2 (5-HT2) [2]
  IC50: 19.8 nM

## O=C1CC2(CCCC2)C(O)C(=O)N1CCCCN1CCN(c2nsc3ccccc23)CC1 (centres unmarked) [Reference # 10, 8-[4-[4-(1,2-Benzisothiazol-3-yl)-1-piperazinyl]butyl]-6-hydroxy-8-azaspiro[-4.5]decane-7,9-dione]
Serotonin Type 2 (5-HT2) [2]
  IC50: 1.1 nM
Trained fasted rats; po
  ED50: 8.4 mg/kg
Dopaminergic activity; po
  ED50: 26 mg/kg

## CCCCCCCCCC(=O)OC1CCC2(CC(=O)N(CCCCN3CCN(c4nsc5ccccc45)CC3)C(=O)C2)C1 (centres unmarked) [Reference # 12, 8-[4-[4-(1,2-Benzisothiazol-3-yl)-1-piperazinyl]butyl]-7,9-dioxo-8-azaspiro[4.5]decan-2-yl Decanoate]
[1]
  IC50: 153 nM
Alpha-1
  IC50: 7.22 nM
Serotonin Type 2 (5-HT2) [2]
  IC50: 10.2 nM
[3]; read-out: RB4 IC50
  IC50: 35.8 nM

## c1ccc2c(N3CCNCC3)nsc2c1 [Reference # 14, 4-(1,2-benzisothiazol-3-yl)1H-piperazine]
[1]
  IC50: > 1000 nM
Alpha-1
  IC50: 510 nM
Serotonin Type 2 (5-HT2) [2]
  IC50: 110 nM
[3]
  IC50: 179 nM

## O=C1CN(C2=NS(=O)(=O)c3ccccc32)CCN1 [Reference # 17, 4-(1,2-Benzisothiazol-1,1-dioxo-3-yl)-2-oxo-lH-piperazine]
Alpha-1
  IC50: 13100 nM
Serotonin Type 2 (5-HT2) [2]
  IC50: > 100000 nM
[3]; read-out: RB4 IC50
  IC50: > 1000 nM

## CC(C)(C)OC(=O)N1CCN(C2=NS(=O)(=O)c3ccccc32)CC1 [Reference # 18, 1,1-Dimethylethyl 4-(1,2-Benzisothiazol-1,1-dioxo-3-yl)-1piperazinecarboxylate]
[1]
  IC50: > 1000 nM
Alpha-1
  IC50: > 100000 nM
[3]; read-out: RB4 IC50
  IC50: > 100000 nM

## O=C1CC2(CCCC2)CC(=O)N1CCCCN1CCN(c2nsc3ccccc23)CC1 [Reference # i, 8-[4-[4-(1,2-benzisothiazol-3-yl)-1-piperazinyl]butyl]-8-azaspiro[4.5]decane-7,9-dione]
Alpha-1
  IC50: 47 nM
Trained fasted rats; po
  ED50: 10.9 mg/kg
Dopaminergic activity; po
  ED50: 13.1 mg/kg
Serotonin Type 2 (5-HT2) [4]
  in vitro interactions at serotonin 5-HT2 receptors: potent
[5]
  in vitro interactions at serotonin 5-HT1A receptors: potent
Sigma receptor
  in vitro interactions at sigma receptor sites: potent
[6]
  in vitro interactions at alpha-adrenergic receptor sites: potent
Dopamine D2 receptors
  in vitro affinity for dopamine D2 receptors: appreciable
Dopamine receptor
  dopamine receptor supersensitivity: does not cause dopamine receptor supersensitivity

## O=C1CC2(CCCC2)CC(=O)N1CCCCN1CCN(c2n[s+]([O-])c3ccccc23)CC1 (centres unmarked) [Reference # ii, 8-[4-[4-(1-oxo-l,2-benzisothiazol-3-yl) -1-piperazinyl]butyl]-8-azaspiro[4.5]decane-7,9-dione, reference compound]
[1]
  IC50: 3490 nM
Alpha-1
  IC50: 331 nM
Serotonin Type 2 (5-HT2) [2]
  IC50: 276 nM
[3]; read-out: RB4 IC50
  IC50: 1120 nM
Trained fasted rats; po
  ED50: 7.6 mg/kg
Dopaminergic activity; po
  ED50: 9.6 mg/kg
[7]
  in vitro binding affinity compared to tiospirone: attenuation of in vitro binding affinity
Psychotropic activity
  potency in in vivo screens predictive of antipsychotic activity: did not affect its potency
